“And” between values parts separate entries of the source, which are not always exact repeats. Equal values may be shown once. Numbers after ± are expanded uncertainties.
Test: activity coefficient (dimensionless); of the first substance listed, at infinite dilution; xn = mol fraction of the nth substance listed
Conditions: 101 kPa, Liquid, x1 = 0

Compound | activity coefficient (333.4 K) | activity coefficient (343.9 K) | activity coefficient (354.4 K) | activity coefficient (364.8 K) | activity coefficient (375.2 K) | activity coefficient (386 K) | activity coefficient (396 K) | activity coefficient (323.1 K) | activity coefficient (333.5 K) | activity coefficient (344 K) | activity coefficient (354.5 K) | activity coefficient (364.9 K) | activity coefficient (375.4 K) | activity coefficient (386.1 K) | activity coefficient (301.8 K) | activity coefficient (312.4 K) | activity coefficient (322.9 K) | activity coefficient (333.2 K) | activity coefficient (354.3 K)
CCCCCCO [hexan-1-ol] + CCCCCC[n+]1ccn(C)c1.O=S(=O)([N-]S(=O)(=O)C(F)(F)F)C(F)(F)F | 2.57 ± 0.47 | 2.32 and 2.25 and 2.37 | 2.14 [middle of 7 runs] | 1.95 [middle of 5 runs] | 1.8 [middle of 5 runs] | 1.67 and 1.69 and 1.7 | 1.56 ± 0.25 | – | – | – | – | – | – | – | – | – | – | – | –
CCCCO [butan-1-ol] + CCCCCC[n+]1ccn(C)c1.O=S(=O)([N-]S(=O)(=O)C(F)(F)F)C(F)(F)F | – | – | – | – | – | – | – | 1.99 and 1.98 and 2.06 | 1.83 [middle of 4 runs] | 1.61 [middle of 5 runs] | 1.46 [middle of 5 runs] | 1.34 [middle of 4 runs] | 1.23 and 1.28 | 1.14 ± 0.12 | – | – | – | – | –
CO [methanol] + CCCCCC[n+]1ccn(C)c1.O=S(=O)([N-]S(=O)(=O)C(F)(F)F)C(F)(F)F | – | – | – | – | – | – | – | – | – | 1 [middle of 4 runs] | – | – | – | – | 1.46 [middle of 4 runs] | 1.29 [middle of 5 runs] | 1.15 and 1.25 and 1.22 | 1.1 [middle of 4 runs] | 0.87 and 0.93 and 0.9
